Values quoted from earlier work, collected in EP2151445B1, “Process for the preparation of bidentate Schiff base ruthenium catalysts containing a salicylaldimine-type ligand” (Rimtec Corporation, priority 2008, dated 2010).

Conditions: in water

Row | pKb | Structure (SMILES)
1 | about 3.69 | O=C([O-])[O-].[Li+].[Li+] [Li2CO3]
2 | about 3.69 | O=C([O-])[O-].[Cu+2] [CuCO3]
3 | about 3.69 | O=C([O-])[O-].[K+].[K+] [K2CO3]
4 | about 3.69 | O=C([O-])[O-].[Na+].[Na+] [Na2CO3]
